The values that follow are results of earlier work, collected in patent US20140199433A1, “POLYDIORGANOSILOXANE-ENCAPSULATED ACTIVE INGREDIENT, METHOD FOR THE PREPARATION THEREOF, AND CHEWING GUM COMPRISING SAME” (Intercontinental Great Brands LLC, priority 2011, published 2014).

The conditions of the series: 20° C. and one atmosphere.

Turning to `O=C(O)CC(O)C(=O)O` (stereo not shown) [malic acid], the water solubility entry is given as “about 588 grams per liter”.
